Laboratory results reported in patent publication US6525017B1, “Using glutathiane to protect neurons from injury” (The Children's Medical Center Corporation, priority 1989, dated 2003).

Tests used:
[1] = test system: NMDA receptor; assay: NMDA-induced responses recorded in intact chick retina (eyecup, optic nerve DC potential); assay type: cell-based; details: APV 100 μM
Protocol: Eyecups were obtained from 2-to 5-day-old chicks and continuously superfused at 20-25° C. at a rate of 8 ml/min with Tyrodes solution (130 mM NaCl, 3 mM KCl, 17 mM dextrose, 20 mM NaHCO3, 0.01% w/v phenol red; bubbled with a gas mixture of 95% O2 and 5% CO2) containing 5 mM MgCl2 to reduce synaptic activity. […] Traces were triggered by the opening of two solenoid valves that shunted approximately 200 μl of agonist (1, 1-dimethyl-4-phenyl-piperazinium iodide, DMPP or NMDA) into the perfusion line, Agonists reached the preparation approximately 7s later. […] Some experiments were performed in the presence of 10 μg/ml catalase and 1 μg/ml superoxide dismutase. Antagonists, reducing agents, or oxidizing agents were introduced directly via the perfusate.

[2] = test system: retinal ganglion cells; assay: Survival of retinal ganglion cells exposed to glutamate (NMDA neurotoxicity); assay type: cell-based, rat; details: for NMDA receptor-mediated neurotoxicity / neuronal cell injury: oxidized DTT produced from reduced DTT with DTNB
Protocol: To investigate the influence of redox modulation on NMDA neurotoxicity, survival of an identified central neuron, the retinal ganglion cell, was monitored for 12-24 hr after a brief (5-10 min.) exposure to DTT. To determine the degree of killing specifically related to activation of the NMDA receptor, APV at 200 μM was added to sibling cultures. APV-preventable, glutamate-induced death was increased 70±9% with DTT treatment.
Retinal ganglion cell neurons were labeled in situ, dissociated from the retina, and cultured as follows. Retinal ganglion cells from 7- to 12-day-old Long-Evans rats were labeled and enzymatically dissociated as described by Leifer et al., Science 224: 303, 1984. Following rinse of the dissociated retinal cells with a physiological saline based on Hanks' salts (composition in mM: NaCl, 137; NaHCO3, 1; Na2HPO4, 0.34; KCl, 5,36; KH2PO4, 0.44; CaCl2, 1.25, MgSO4, 0.5; MgCl2, 0.5; N-2-hydroxyethyl-piperazine-N′-2-ethanesulfonic acid (HEPES), 5; dextrose, 22.2; Phenol Red, 0.001% v/v; adjusted to pH 7.2 with 0.3 M NaOH), the cells were mechanically dispersed and aliquoted to treatment vials. These vials contained control saline solution, or saline solution with either 0.5-2 mM DTT, or 0.5 mM DTT in the presence of 1 mM DTNB. Treatment groups with DTNB were readjusted to pH 7.2 with 0.3 M NaOH. Cells were agitated gently over a 5-10 min period. After treatment, 100 μl volumes of the cell suspension were plated onto glass coverslips coated with poly-L-lysine in 35×10 mm tissue-culture dishes containing 2 ml of culture medium. The cell culture medium was based on Eagle's minimum essential medium (MEM), modified so that it was nominally free of magnesium and contained 10 mM CaCl2 to enhance NMDA receptor-mediated neuro-toxicity. The medium was also supplemented with methylcellulose 0.7% w/v, gentamicin 1 μg/ml, dextrose 16 mM, and rat serum 5% v/v. Glutamate levels in the culture medium were monitored by HPLC analysis. Concentrations of glutamate added to the medium of each experiment to induce cell killing averaged 10 μM (day to day variability in neuronal cell death was most probably due to slight variations in the amount of endogenous glutamate or a glutamate-like substance in these cultures). The 100 μl aliquots of cell suspension diluted into the 2 ml of MEM produced a final concentration of 50 μM Mg^2+, as well as levels of DTT and DTNB at 5% of their initial treatment concentrations. The cell cultures were incubated for 12-24 hours at 37° C. in an atmosphere of 5% CO2/95% humidified air. Neuronal survival was then scored by counting retinal ganglion cells displaying uptake and cleavage of fluorescein diacetate to fluorescein, as described by Hahn et al. Proc. Nat. Acad. Sci. USA 85:6556, 1988.
Experiments were conducted in triplicate and repeated on eleven separate days. In order to compare results obtained on different days, data were normalized such that the total number of surviving neurons in a given experiment divided by the number of treatment categories (i.e., 4) equalled 100.
Retinal cells were cultured as described in Example 1. In these experiments transient exposure to the reduced form of DTT (500 μM) occurred in the presence of DTNB (1 mM).

[3] = test system: NMDA receptors; details: 0.5-10 mM

## NC(CCCP(=O)(O)O)C(=O)O (stereo not shown) [APV, 2-amino-5-phosphonovalerate]
[1]
  NMDA-induced responses in native and reduced states: blocked NMDA-induced responses
[2]; 200 μM APV after DTT treatment
  vulnerability of neurons despite DTT treatment: could be blocked
[2]; APV 200 μM, DTT transient exposure, 12-24 hr
  death of retinal ganglion cells exposed to glutamate in the culture medium: prevented the death
[2]; DTT 500 μM in the presence of DTNB 1 mM, APV cultures P<0.01
  neuronal survival compared to baseline: significantly greater than baseline

## O[C@H]1CSSC[C@@H]1O [oxidized DTT, oxidized dithiotheritol]
[2]
  NMDA receptor-mediated neurotoxicity / neuronal cell injury: does not effect neuronal cell injury
[2]; listed as oxidized dithiotheritol (DTT)
  NMDA receptor-mediated neurotoxicity / neuronal cell injury: does not significantly affect

## N[C@@H](CCC(=O)N[C@@H](CS)C(=O)NCC(=O)O)C(=O)O [reduced glutathione, glutathione]
[3]
  protection against toxicity mediated at NMDA receptors: can protect
